Reference: paper PMC6277198, “Molecular basis for activation of lecithin:cholesterol acyltransferase by a compound that increases HDL cholesterol” (eLife, 2018)
Residue numbers refer to the chain shown, from its start. Where “and” joins values, the source holds several entries; their conditions need not be identical. Equal entries are not always repeated. Entries after “also recorded” stand apart in the source; their conditions may differ. Where two headings read alike, the source gives them in different places.

Legend:
Test in all cases: MUP hydrolysis (esterase) assay
Type in all cases: biochemical
LCAT G71I = molecular target: T1, LCAT G71I (Homo sapiens, UniProt P04180, G95I); conditions: compound titrated from 0.04 to 9.5 μM
T1 construct: hydrolysis of 4-methylumbelliferyl palmitate (MUP) by full-length LCAT; made in house; host or cells: HEK293F (transient transfection, secreted)
T1 sequence (P04180 25-440 G95I): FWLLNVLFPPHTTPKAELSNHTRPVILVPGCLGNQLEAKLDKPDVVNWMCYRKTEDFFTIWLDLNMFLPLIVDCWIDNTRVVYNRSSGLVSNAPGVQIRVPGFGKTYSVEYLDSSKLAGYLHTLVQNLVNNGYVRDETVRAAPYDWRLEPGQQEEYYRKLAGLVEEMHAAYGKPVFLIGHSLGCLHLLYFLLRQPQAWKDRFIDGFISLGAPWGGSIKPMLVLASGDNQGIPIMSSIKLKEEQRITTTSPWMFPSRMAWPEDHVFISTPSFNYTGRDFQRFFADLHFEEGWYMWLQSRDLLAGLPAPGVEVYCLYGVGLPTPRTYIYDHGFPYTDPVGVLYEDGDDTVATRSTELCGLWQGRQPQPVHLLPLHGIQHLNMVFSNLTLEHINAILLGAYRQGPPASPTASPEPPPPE
Protocol: (§1) The lipase activity of LCAT was measured using MUP as a substrate. The assay was performed at room temperature in 0.1 M sodium phosphate buffer, pH 7.4 containing 0.01% Triton X-100. 4 μL of LCAT (6 nM final concentration) were dispensed into a 1536-well Greiner solid black plate. The same volume of assay buffer was dispensed into column 1 and 2 for a no-enzyme control. […] After 15 min incubation, 2 μL MUP (16 μM final concentration) was added to initiate the reaction. The hydrolysis of MUP was monitored using a ViewLux plate reader (excitation 380 nm/emission 450 nm) for 20 min. The fluorescence signal was normalized against no-activator and no-enzyme control after subtraction of background signal (t = 0 min). To plot percent activation, in each assay 100% was set at the rate of LCAT or LCAT variant without compound. The resulting data were fitted to a sigmoidal dose response curve.

LCAT Y51S = molecular target: T2, LCAT Y51S (Homo sapiens, UniProt P04180, Y75S)
T2 construct: hydrolysis of 4-methylumbelliferyl palmitate (MUP) by full-length LCAT; made in house; host or cells: HEK293F (transient transfection, secreted)
T2 sequence (P04180 25-440 Y75S): T1 sequence (P04180 25-440 G95I) with Y51S, I71G
Protocol: as §1

LCAT Y51S/G71I = molecular target: T3, LCAT Y51S/G71I (Homo sapiens, UniProt P04180, G95I/Y75S); conditions: compound titrated from 0.04 to 9.5 μM
T3 construct: hydrolysis of 4-methylumbelliferyl palmitate (MUP) by full-length LCAT; made in house; host or cells: HEK293F (transient transfection, secreted)
T3 sequence (P04180 25-440 Y75S/G95I): T1 sequence (P04180 25-440 G95I) with Y51S
Protocol: as §1

WT LCAT = molecular target: T4, WT LCAT (Homo sapiens, UniProt P04180); parameters: hydrolysis of 4-methylumbelliferyl palmitate (MUP) by full-length LCAT; made in house; host or cells: HEK293F (transient transfection, secreted)
T4 sequence (P04180 25-440): T1 sequence (P04180 25-440 G95I) with I71G
Protocol: as §1

[1] = Y51S, compound titrated from 0.04 to 9.5 μM
[2] = WT, compound titrated from 0.04 to 9.5 μM, read-out: MUP assay EC50
[3] = WT, compound titrated from 0.04 to 9.5 μM

SMILES | EC50 (LCAT G71I) | Fold activation, MUP esterase assay (LCAT G71I) | EC50 (LCAT Y51S; [1]) | Fold activation, MUP esterase assay (LCAT Y51S; [1]) | MUP EC50 of Y51S relative to WT (LCAT Y51S; fold higher than WT) | Fold activation, MUP esterase assay (LCAT Y51S/G71I) | MUP assay EC50 (LCAT Y51S/G71I) | EC50 (WT LCAT; [2]) | EC50 (WT LCAT; full-length WT LCAT, read-out: EC50, MUP hydrolysis) | MUP assay EC50 (LCAT G71I) | Fold activation, MUP esterase assay (WT LCAT; [3]) | EC50 (LCAT Y51S/G71I) | MUP assay EC50 (LCAT Y51S; [1]) | MUP assay EC50 (WT LCAT; [3])
N#Cc1cnc(N2CCC(c3n[nH]c4c3C(O)(C(F)(F)F)CC(=O)N4)CC2)cc1C(F)(F)F (centres unmarked) [compound 1, 6-(4-(4-Hydroxy-6-oxo-4-(trifluoromethyl)−4,5,6,7-tetrahydro-1H-pyrazolo[3,4-b]pyridin-3-yl)piperidin-1-yl)−4-(trifluoromethyl)nicotinonitrile] | > 5 µM | 1.5 ± 0.4 fold | 590 ± 30 nM | 1.9 ± 0.2 fold | 4 fold | 1.3 ± 0.3 fold | no response; also recorded: no effect | 160 ± 10 nM | ~150 nM |  |  |  |  | 
O=C1CC(O)(C(F)(F)F)c2c(C3CCN(c4cnc(C(F)(F)F)cn4)CC3)n[nH]c2N1 (centres unmarked) [compound 2, 4-Hydroxy-4-(trifluoromethyl)−3-(1-(5-(trifluoromethyl)pyrazin-2-yl)piperidin-4-yl)−4,5-dihydro-1H-pyrazolo[3,4-b]pyridin-6(7H)-one] | > 5 µM | 1.7 ± 0.2 fold | 740 ± 200 nM | 1.8 ± 0.1 fold |  | 0.99 ± 0.03 fold | no effect | 280 ± 40 nM |  |  |  |  |  | 
O=C1CC(O)(C(F)(F)F)c2c(C3CCN(c4cnc(C(F)(F)F)cn4)CC3)noc2N1 (centres unmarked) [compound 9, 4-hydroxy-4-(trifluoromethyl)−3-(1-(5-(trifluoromethyl)pyrazin-2-yl)piperidin-4-yl)−4,5-dihydroisoxazolo[5,4-b]pyridin-6(7H)-one] |  | 0.96 ± 0.01 fold | > 10000 nM | 1.1 ± 0.07 fold |  | 0.97 ± 0.003 fold | no effect | 7700 ± 2000 nM |  | no effect | 1.6 fold and 1.6 ± 0.2 fold |  |  | 
O=C1CC(O)(C(F)(F)F)c2c(ncn2C2CCN(c3cnc(C(F)(F)F)cn3)CC2)N1 (centres unmarked) [compound 3, 7-Hydroxy-7-(trifluoromethyl)−1-(1-(5-(trifluoromethyl)pyrazin-2-yl)piperidin-4-yl)−6,7-dihydro-1H-imidazo[4,5-b]pyridin-5(4H)-one] | > 5 µM | 1.5 ± 0.2 fold | 1600 ± 400 nM | 1.9 ± 0.2 fold |  | 1.1 ± 0.06 fold | no effect | 320 ± 50 nM |  |  |  |  |  | 
O=c1cc(C(F)(F)F)c2c(ncn2C2CCN(c3cnc(C(F)(F)F)cn3)CC2)[nH]1 [compound 8, 7-(trifluoromethyl)−1-(1-(5-(trifluoromethyl)pyrazin-2-yl)piperidin-4-yl)−1H-imidazo[4,5-b]pyridin-5(4H)-one] | > 10 µM | 1.2 ± 0.1 fold | > 10000 nM | 2.8 ± 0.6 fold |  | 1.1 ± 0.07 fold |  | 4600 ± 60 nM |  |  | 3.7 fold and 3.7 ± 0.9 fold | > 10 µM |  | 
O=C1CC(O)(C(F)(F)F)c2c(ncn2C2CCNCC2)N1 (centres unmarked) [compound 6, 7-Hydroxy-1-(piperidin-4-yl)−7-(trifluoromethyl)−6,7-dihydro-1H-imidazo[4,5-b]pyridin-5(4H)-one] |  | no effect |  | no effect |  | no effect | no effect |  |  | no effect | no activating effect |  | no effect | no effect
